Data from ChEMBL document CHEMBL1121450, “Synthesis and antineoplastic activity of phenyl-substituted benzenesulfonylhydrazones of 2-pyridinecarboxyaldehyde 1-oxide” (1980).

Assays:
Type in all cases: functional
[1] = species on record: Mus musculus; assay: Average change in body weight from onset to termination of drug therapy in mice bearing the P388 Leukemia at 100 mg / kg
[2] = species on record: Mus musculus; assay: At the 50 day survivors of mice bearing the L1210 Leukemia at 120 mg / kg; parameters: unit not given here
[3] = species on record: Mus musculus; assay: The average survival time(days) of mice bearing the P388 Leukemia at 100 mg / kg
[4] = species on record: Mus musculus; assay: Average survival time (treated / control) x100 was calculated in mice bearing the L1210 Leukemia at 120 mg / kg (Mice that survived more than 50 days)
[5] = species on record: Mus musculus; assay: Average survival time (treated / control) x100 was calculated in mice bearing the P388 Leukemia at 100 mg / kg (Mice that survived more than 50 days)
[6] = species on record: Mus musculus; assay: At the 50 day survivors of mice bearing the P388 Leukemia at 100 mg / kg (Mice that survived more than 50 days)
[7] = species on record: Mus musculus; assay: Average change in body weight from onset to termination of drug therapy in mice bearing the L1210 Leukemia at 120 mg / kg
[8] = species on record: Mus musculus; assay: The average survival time (days) of mice bearing the L1210 Leukemia at 120 mg / kg (Mice that survived more than 50 days)
[9] = species on record: Mus musculus; assay: Average change in body weight from onset to termination of drug therapy in mice bearing the L1210 Leukemia at 80 mg / kg
[10] = species on record: Mus musculus; assay: At the 50 day survivors of mice bearing the L1210 Leukemia at 80 mg / kg
[11] = species on record: Mus musculus; assay: Average survival time (treated / control) x100 was calculated in mice bearing the P388 Leukemia at 100 mg / kg
[12] = species on record: Mus musculus; assay: The average survival time (days) of mice bearing the L1210 Leukemia at 80 mg / kg
[13] = species on record: Mus musculus; assay: Average survival time (treated / control) x100 was calculated in mice bearing the L1210 Leukemia at 80 mg / kg
[14] = species on record: Mus musculus; assay: At the 50 day survivors of mice bearing the P388 Leukemia at 100 mg / kg; parameters: unit not given here
[15] = species on record: Mus musculus; assay: The average survival time (days) of mice bearing the L1210 Leukemia at 100 mg / kg
[16] = species on record: Mus musculus; assay: Average survival time (treated / control) x100 was calculated in mice bearing the L1210 Leukemia at 100 mg / kg
[17] = species on record: Mus musculus; assay: Average change in body weight from onset to termination of drug therapy in mice bearing the L1210 Leukemia at 100 mg / kg
[18] = species on record: Mus musculus; assay: At the 50 day survivors of mice bearing the L1210 Leukemia at 100 mg / kg; parameters: unit not given here
[19] = species on record: Mus musculus; assay: The average survival time(days) of mice bearing the P388 Leukemia at 100 mg / kg (Mice that survived more than 50 days)
[20] = species on record: Mus musculus; assay: Average survival time (treated / control) x100 was calculated in mice bearing the P388 Leukemia at 80 mg / kg
[21] = species on record: Mus musculus; assay: Average change in body weight from onset to termination of drug therapy in mice bearing the P388 Leukemia at 80 mg / kg
[22] = species on record: Mus musculus; assay: Average survival time (treated / control) x100 was calculated in mice bearing the L1210 Leukemia at 120 mg / kg
[23] = species on record: Mus musculus; assay: The average survival time (days) of mice bearing the L1210 Leukemia at 120 mg / kg
[24] = species on record: Mus musculus; assay: At the 50 day survivors of mice bearing the P388 Leukemia at 80 mg / kg
[25] = species on record: Mus musculus; assay: The average survival time(days) of mice bearing the P388 Leukemia at 80 mg / kg
[26] = species on record: Mus musculus; assay: The average survival time (days) of mice bearing the L1210 Leukemia at 60 mg / kg
[27] = species on record: Mus musculus; assay: Average survival time (treated / control) x100 was calculated in mice bearing the L1210 Leukemia at 60 mg / kg
[28] = species on record: Mus musculus; assay: Average change in body weight from onset to termination of drug therapy in mice bearing the L1210 Leukemia at 60 mg / kg
[29] = species on record: Mus musculus; assay: At the 50 day survivors of mice bearing the L1210 Leukemia at 60 mg / kg
[30] = species on record: Mus musculus; assay: Average survival time (treated / control) x100 was calculated in mice bearing the P388 Leukemia at 80 mg / kg (Mice that survived more than 50 days)
[31] = species on record: Mus musculus; assay: The average survival time(days) of mice bearing the P388 Leukemia at 80 mg / kg (Mice that survived more than 50 days)
[32] = species on record: Mus musculus; assay: Average change in body weight from onset to termination of drug therapy in mice bearing the P388 Leukemia at 120 mg / kg
[33] = species on record: Mus musculus; assay: The average survival time (days) of mice bearing the L1210 Leukemia at 100 mg / kg (Mice that survived more than 50 days)
[34] = species on record: Mus musculus; assay: Average survival time (treated / control) x100 was calculated in mice bearing the P388 Leukemia at 120 mg / kg (Mice that survived more than 50 days)
[35] = species on record: Mus musculus; assay: Average survival time (treated / control) x100 was calculated in mice bearing the L1210 Leukemia at 100 mg / kg (Mice that survived more than 50 days)
[36] = species on record: Mus musculus; assay: The average survival time(days) of mice bearing the P388 Leukemia at 120 mg / kg (Mice that survived more than 50 days)
[37] = species on record: Mus musculus; assay: At the 50 day survivors of mice bearing the P388 Leukemia at 120 mg / kg
[38] = species on record: Mus musculus; assay: The average survival time (days) of mice bearing the L1210 Leukemia at 80 mg / kg (Mice that survived more than 50 days)
[39] = species on record: Mus musculus; assay: Average survival time (treated / control) x100 was calculated in mice bearing the L1210 Leukemia at 80 mg / kg (Mice that survived more than 50 days)

Structure (SMILES): Cc1cc(C)c(S(=O)(=O)N/N=C/c2cccc[n+]2[O-])c(C)c1
- Average change in body weight [1]: -9.3%
- Survivors [2]: 40
- Average survival [3]: 17 days
- T/C [4]: 126%
- T/C [5]: 180%
- Survivors [6]: 40
- Average change in body weight [7]: -1%
- Average survival [8]: 11.3 days

Structure (SMILES): O=C(O)c1cc(S(=O)(=O)N/N=C/c2cccc[n+]2[O-])ccc1O
- Average change in body weight [9]: 0%
- Average change in body weight [1]: -9.8%
- Survivors [10]: 0
- T/C [11]: 147%
- Average survival [3]: 13.8 days
- Average survival [12]: 14 days
- T/C [13]: 156%
- Survivors [14]: 0

Structure (SMILES): CN(C)c1ccc(S(=O)(=O)N/N=C/c2cccc[n+]2[O-])cc1
- Average change in body weight [1]: -4.4%
- T/C [11]: 174%
- Average survival [15]: 16.8 days
- T/C [16]: 187%
- Average survival [3]: 16.4 days
- Average change in body weight [17]: -3.2%
- Survivors [18]: 0
- Survivors [14]: 0

Structure (SMILES): Cc1ccc(S(=O)(=O)N/N=C/c2cccc[n+]2[O-])cc1C(=O)O
- Average change in body weight [1]: -5.9%
- Average survival [15]: 11.8 days
- T/C [16]: 131%
- Average survival [19]: 9.3 days
- T/C [5]: 99%
- Average change in body weight [17]: -5%
- Survivors [18]: 0
- Survivors [14]: 40

Structure (SMILES): CC(=O)Nc1ccc(S(=O)(=O)N/N=C/c2cccc[n+]2[O-])cc1
- T/C [20]: 157%
- Average change in body weight [21]: -4.4%
- Survivors [2]: 0
- T/C [22]: 169%
- Average survival [23]: 15.2 days
- Survivors [24]: 0
- Average survival [25]: 14.8 days
- Average change in body weight [7]: 0%

Structure (SMILES): O=S(=O)(N/N=C/c1cccc[n+]1[O-])c1ccc(O)cc1
- Average change in body weight [1]: -15.4%
- T/C [11]: 170%
- Average survival [15]: 12.2 days
- T/C [16]: 136%
- Average survival [3]: 16 days
- Average change in body weight [17]: -0.8%
- Survivors [18]: 0
- Survivors [14]: 0

Structure (SMILES): O=C(O)c1ccc(S(=O)(=O)N/N=C/c2cccc[n+]2[O-])cc1
- Average change in body weight [1]: -4.1%
- Average survival [26]: 10.8 days
- T/C [11]: 147%
- T/C [27]: 120%
- Average survival [3]: 13.8 days
- Average change in body weight [28]: 3.4%
- Survivors [29]: 0
- Survivors [14]: 0

Structure (SMILES): COc1ccc(C(=O)O)cc1S(=O)(=O)N/N=C/c1cccc[n+]1[O-]
- Average change in body weight [21]: -3.1%
- Average survival [15]: 11.6 days
- T/C [16]: 129%
- T/C [30]: 160%
- Average survival [31]: 15 days
- Survivors [24]: 20
- Average change in body weight [17]: 8.1%
- Survivors [18]: 0

Structure (SMILES): O=C(O)c1cccc(S(=O)(=O)N/N=C/c2cccc[n+]2[O-])c1
- T/C [20]: 147%
- Average change in body weight [21]: -6.5%
- Survivors [2]: 0
- T/C [22]: 138%
- Average survival [23]: 12.4 days
- Survivors [24]: 0
- Average survival [25]: 13.8 days
- Average change in body weight [7]: -2.4%

Structure (SMILES): COc1ccc(S(=O)(=O)N/N=C/c2cccc[n+]2[O-])cc1OC
- Average change in body weight [32]: -18.8%
- Average survival [33]: 19 days
- T/C [34]: 122%
- Average change in body weight [17]: -8.7%
- T/C [35]: 210%
- Survivors [18]: 80
- Average survival [36]: 11.5 days
- Survivors [37]: 60

Structure (SMILES): O=C(O)Cc1ccc(S(=O)(=O)N/N=C/c2cccc[n+]2[O-])cc1
- Average change in body weight [1]: -5.2%
- Survivors [2]: 0
- T/C [22]: 116%
- Average survival [23]: 10.4 days
- T/C [11]: 145%
- Average survival [3]: 13.6 days
- Average change in body weight [7]: 7.3%
- Survivors [14]: 0

Structure (SMILES): COc1ccc(S(=O)(=O)N/N=C/c2cccc[n+]2[O-])c(OC)c1
- Average change in body weight [9]: -2.5%
- Average change in body weight [1]: -10.3%
- Survivors [10]: 20
- Average survival [38]: 11.7 days
- Average survival [19]: 21.2 days
- T/C [5]: 226%
- T/C [39]: 130%
- Survivors [14]: 20

Structure (SMILES): Cc1ccc(C(=O)O)cc1S(=O)(=O)N/N=C/c1cccc[n+]1[O-]
- Average change in body weight [1]: 0%
- Average survival [15]: 12 days
- T/C [16]: 133%
- Average survival [19]: 17 days
- T/C [5]: 180%
- Average change in body weight [17]: 4.1%
- Survivors [18]: 0
- Survivors [14]: 20
